Common to all, as to assay type: functional, organism-based
The species named for test [1] is Ovis aries. In words: The concentration effective to cause 50% hemolysis with sensitized sheep erythrocytes in the absence of complement.
The species entered for test [2] is Ovis aries. The experiment in a line: The concentration required to inhibit complement mediated hemolysis of sensitized sheep RBC.
The species named for test [3] is Ovis aries. In words: Concentration required to inhibit complement mediated hemolysis of sensitized sheep RBC.
The species entered for test [4] is Ovis aries. The experiment in a line: The concentration required to inhibit complement mediated hemolysis of sensitized sheep RBC; not active.
For test [5], the species on record is Ovis aries. In words: Concentration effective to cause 50% hemolysis with sensitized sheep erythrocytes in the absence of complement.

For orientation: EC50 means the concentration giving half of the maximal effect. What is called IC50 is the point on the concentration scale where inhibition reaches its midpoint. As to `O=C(O)c1cccc(Oc2ccccc2)c1` [M-PHENOXYBENZOIC ACID FOR CIS-ISOMER], in the test listed under Ovis aries [1], the EC50 was greater than 2800 µM. Further, the half-maximal inhibitory concentration (IC50) in the test listed under Ovis aries [2] was 1400 µM. As to `COc1cccc(C=O)c1`, the EC50 in the test listed under Ovis aries [1] was greater than 4410 µM. In the test listed under Ovis aries [3], the IC50 turned out to be 919 µM.

For `CCOc1cccc(-c2nn[nH]n2)c1`, the EC50 in the test listed under Ovis aries [1] was determined as 2210 µM. Moreover, in the test filed under Ovis aries [2], the IC50 turned out to be 631 µM. In the case of `c1ccc(Oc2cccc(-c3nn[nH]n3)c2)cc1`, in the test filed under Ovis aries [1], the EC50 amounted to 954 µM. In the test listed under Ovis aries [2], the concentration for half-maximal inhibition (IC50) was determined as 798 µM. In the case of `COc1cccc(C(=O)O)c1`, the IC50 result in the test filed under Ovis aries [4] was “Not Active”. In addition, in the test listed under Ovis aries [1], the EC50 stood at 2960 µM. Consider `O=Cc1cccc(Oc2ccccc2)c1`, for which the EC50 in the test filed under Ovis aries [1] was greater than 3.3 µM. Moreover, in the test filed under Ovis aries [2], the IC50 turned out to be 1390 µM. On to `CCOc1cccc(C(=O)O)c1`, for which the IC50 result in the test listed under Ovis aries [4] is “Not Active”. For the same compound, in the test listed under Ovis aries [1], the EC50 was 2530 µM. For the compound `CCOc1cccc(C=O)c1`, in the test listed under Ovis aries [5], the EC50 is greater than 4000 µM. In addition, the IC50 in the test listed under Ovis aries [2] stood at 1000 µM. For `CC1(C)CC[C@]2(C(=O)O)CC[C@]3(C)C(=CC[C@@H]4[C@@]5(C)CC[C@H](O)C(C)(C)[C@@H]5CC[C@]43C)[C@@H]2C1` [OLEANOLIC_ACID], the IC50 in the test filed under Ovis aries [2] is 76.6 µM. Take `C[C@H]1[C@H](C)CC[C@]2(C(=O)O)CC[C@]3(C)C(=CC[C@@H]4[C@@]5(C)CC[C@H](O)C(C)(C)[C@@H]5CC[C@]43C)[C@H]12` [URSOLIC ACID]: the half-inhibitory concentration (IC50) in the test listed under Ovis aries [2] is 54.7 µM. In the case of `COc1cccc(-c2nn[nH]n2)c1`, the EC50 in the test listed under Ovis aries [1] was greater than 3410 µM. In addition, the IC50 in the test listed under Ovis aries [2] worked out at 1560 µM.

The record behind these values is ChEMBL document CHEMBL1136673, “Synthesis of low molecular weight compounds with complement inhibition activity” (Bioorg Med Chem Lett, 2003).
